The results in this text go back to patent US20060167091A1, “Acaricide” (priority 2003, published 2006).

The subject of the assay is Two-spotted spider mites. Nature of the assay: Miticidal test on two-spotted spider mites. It is filed as in vivo, Tetranychus urticae Koch. The following applies: Tetranychus urticae, 48 h, 2 days after spraying, read-out: Mortality rate. The source says:
Two-spotted spider mites from the Nagano prefecture, which are poorly sensitive to chemicals, were used as mite specimens. Preparation A and Preparation B were used as chemical specimens.
A plastic cup (trade name: KP-120, manufactured by Kohnoike plastic Co., Ltd.) was filled with tap water, and the plastic cup was covered with a lid having an incision therein. A piece of non-woven fabric (4.5×5.5 cm) was cut for about 4 cm parallel to its longer side 1 cm from the edge. The portion hanging loose was suspended inside the plastic cup through the incision. A kidney bean leaf (about 3.5×4.5 cm) was placed on the sufficiently soaked, non-woven fabric. Twenty female adults of two-spotted spider mites were released into each cup.
Preparation A and Preparation B each diluted with tap water to specific concentrations were mixed, and the mixture was sprayed in a volume of 2 ml using a spray tower (Potter Spray Tower, manufactured by Burkard Manufacturing Co. Ltd, at a spraying pressure of 5 lb/inch). The kidney bean leaf was placed in a thermostatic chamber having a temperature of 25±2° C. and a humidity of 60%. The numbers of live and dead mites were counted 2 days later. The mortality rate was calculated using the equation provided below.
For comparison, mortality rates were calculated in the same manner as above except that Formulation A and Formulation B each diluted with tap water to specific concentrations were used one without each other. Mortality rate=(1−V/W)×100 where V is the survival rate in the treated area, and W is the survival rate in the untreated area.
Furthermore, the effectiveness (E) anticipated from the miticide of the present invention was calculated using the Colby equation (Weeds 15, 20-22 (1967)) to obtain a mathematical effectiveness (%): E=x+y−(x·y/100) where E is the effectiveness expressed in % anticipated from Compound A and chlorfenapyr when used at concentrations of p and q, respectively; x is the effectiveness of Compound A when used at a concentration of p; and y is the effectiveness of chlorfenapyr when used at a concentration of q.

The mortality is the share of the test organisms that died.

Regarding `COCCOC(=O)C(C#N)(C(=O)c1ccccc1C(F)(F)F)c1ccc(C(C)(C)C)cc1` (stereo not shown) [Compound A, methoxyethyl 2-(4-tert-butylphenyl)-2-(2-trifluoromethylbenzoyl)cyanoacetate], the mortality at 12.5 ppm (Compound A 12.5 ppm alone (chlorfenapyr 0 ppm), female adults on kidney bean leaf) was 19%. In addition, the mortality at 25 ppm (Compound A 25 ppm alone (chlorfenapyr 0 ppm)) stood at 45%. Besides, for the setting “Compound A 50 ppm alone (chlorfenapyr 0 ppm)”, the mortality at 50 ppm worked out at 48%. For the same compound, the mortality at 100 ppm (Compound A 100 ppm alone (chlorfenapyr 0 ppm)) was determined as 25%. In addition, the mortality at 200 ppm (Compound A 200 ppm alone (chlorfenapyr 0 ppm)) came to 66%.
As to `CCOCn1c(-c2ccc(Cl)cc2)c(C#N)c(Br)c1C(F)(F)F` [chlorfenapyr, 4-bromo-2-(4-chlorophenyl)-1-ethoxymethyl-5-trifluoromethylpyrrole-3-carbonitrile], where the note is “chlorfenapyr 0.4 ppm alone (Compound A 0 ppm)”, the mortality at 0.4 ppm is 0%. The mortality at 1 ppm (chlorfenapyr 1 ppm alone (Compound A 0 ppm)) was 0%. Moreover, the mortality at 2 ppm (chlorfenapyr 2 ppm alone (Compound A 0 ppm)) was determined as 0%. Further, the mortality at 5 ppm (chlorfenapyr 5 ppm alone (Compound A 0 ppm)) came out at 0%. Also, under “chlorfenapyr 10 ppm alone (Compound A 0 ppm)”, the mortality at 10 ppm is 84%.
